Series [1] can be described thus: Biotin-4-fluorescein on-rate assay. In kind it is binding. The conditions noted are these: 25 °C. How it is done:
Association kinetics were also monitored by utilizing B4F. […] 20 μL streptavidin was added and measurements were started immediately on a Horiba FluoroMax-4 spectrofluorometer with 490 nm excitation/525 nm emission and 2 and 15 nm slit widths, respectively, for the monochromator. Protein concentrations used were: 0.4, 0.8, 1.6, 2.4, 3.2 nM for wt; 0.8, 1.6, 3.2, 6.4 nM for oxidized M112; 0.4, 0.8, 1.6, 3.2 nM for reduced M112; 0.77, 1.5, 3.1, 6.1 nM for reduced M88 and 6.25, 12.5, 25, 50 nM for traptavidin. For oxidized M88, measurements were done in 60 μL total volume using 10 nM B4F and 50, 100, 200 and 400 nM M88.

The nature of series [2]: Thermostability assay (heating in SDS, SDS-PAGE of tetramer). In kind it is physicochemical. The note with it: for denaturation of the tetramer: presence of biotin. How it is done:
To assess thermostability, SDS was added to 2% to wild-type or previously oxidized M88 or M112 and was incubated in the presence or absence of 5 mM biotin and in the presence and absence of 200 mM β-mercaptoethanol for 15 min. The samples were heated at 75 or 95 °C for 1 h and aliquots taken every 5 min for the first 30 min, and then at 45 and 60 min. Samples from each time point were run on a 12% SDS-PAGE gel, which were than stained with Coomassie blue. Band intensity was quantified using ImageJ software and the fraction of protein that remained tetrameric was determined relative to time zero. The band intensities for a series of standards was determined to indicate the linear range for quantification.

The nature of series [3]: Biotin-4-fluorescein off-rate assay (competitive, fluorescence quenching; Arrhenius extrapolation).
Procedure: Dissociation kinetics were measured with a competitive assay exploiting the fluorescence quenching of B4F upon binding to streptavidin[13],[30]. In a total volume of 200 μL, 50 nM streptavidin, 10 nM B4F (Invitrogen), 50 mM NaCl, 1 mM EDTA, 20 mM Tris pH 8, were incubated for 30 min. Biotin was added to 0.1 mM to prevent B4F re-association and fluorescence was monitored using a Tecan Infinite M200 plate reader with 485 nm excitation/525 nm emission for 12 h at 25 °C. The maximum, with all B4F unbound, and minimum, with all B4F bound, fluorescence was determined with similar mixtures in the absence of either streptavidin or biotin, respectively, and the fraction of B4F released at each time point was calculated as %B4FReleased=response-min/max-min×100% . […] The rapid phase was ignored and off-rate constants were determined by nonlinear least squares fitting of the data to the single exponential function y=1-e^kt .
High-temperature kinetics were measured by the same competitive assay but instead using a Horiba Jobin–Yvon FluoroMax-4 spectrofluorometer. To limit evaporation and condensation within the cuvette, it was filled to the top with 4 mL of solution using the same concentrations of reagents as above. Fluorescence was initially measured without streptavidin, giving the maximum, unquenched signal. Streptavidin was then added and allowed to equilibrate until a constant fluorescent signal was achieved, and unlabelled biotin was added to start the experiment. At these higher temperatures, the rapid release phase was more apparent and accounted for by fitting the data to the double exponential function y=max-ae^-kat-be^-kbt. The linear Arrhenius plot was generated by plotting ln(koff) against 1/temperature. A linear least squares fit to the function lnkoff=lnA-Ea/RT was used to extrapolate the dissociation constant at lower temperatures.
Series [4] can be described thus: Rate of disulfide bond formation (Alexa Fluor 633 maleimide labelling). The conditions noted are these: 10 mM GSSG. In kind it is physicochemical. From the text: Protein disulfide bond formation was catalyzed by thiol-disulfide exchange with either oxidized glutathione (GSSG) or 2,2′-dipyridyldisulfide. Disulfide bonds were inferred by selectively labelling free Cys with Alexa Fluor 633 C5 maleimide (Invitrogen) and subsequent separation by Tricine SDS-PAGE[50]. Detection is based on both fluorescence and a mobility shift due to the large size of these labels (~ 1.3 kDa each, ~ 2.6 kDa if both cysteines in M88 or M112 react). Ratios of reactants were based on those previously described for saturation labelling. Because the N- and C-terminal tails are susceptible to degradation by trace proteases, leading to band heterogeneity in the gel, core-form versions of M88 and M112 were primarily used for this assay. […] Immediately after the run, fluorescence was measured with excitation by 635 nm laser and emission collected through a 665 nm long-pass filter on a Typhoon FLA 9,500 laser scanner (GE Healthcare).
To measure the time course of disulfide formation, streptavidin muteins were reduced with TCEP which was subsequently removed by centrifugal filtration. […] Fluorescence intensity of each band was quantified using ImageQuant software and the amount off free Cys at each timepoint was determined relative to the initial amount. […]

The conditions of series [5]: cited from earlier work.

Where two headings read alike, the source gives them in different places.

Take “M88 oxidized: M88 (N49C/A86C streptavidin mutein) with the Cys-49/Cys-86 disulfide bond formed”: in series [1], the “decrease in rate of association compared to the reduced form of M88” value amounted to 18.5 fold and the “decrease in rate of association compared to wild-type streptavidin” value was 117 fold. In series [1] (B4F, ± standard error), the kon is reported as 4.6 ± 0.3 × 10^5 M^-1 s^-1. Also, in series [2] (75 °C, without biotin, 60 min incubation), the “tetramer state after heating” value is listed as “remains tetrameric”. Besides, the “denaturation of the tetramer” value in series [2] (95 °C, 60 min incubation) was “no appreciable denaturation”. Moreover, in series [3] (25 °C, after 12 h), the “change in B4F fluorescence (dissociation)” value is recorded as “no change in B4F fluorescence measurable”. In series [3] (25 °C, extrapolated), the “rate of dissociation lower than wild-type streptavidin” value was 225 fold. Further, the “stability during kinetics measurement” value in series [3] (90 °C) is “appeared to be stable”. Moreover, in series [3] (Arrhenius plot, 25–90 °C), the “rate of dissociation relative to traptavidin” value is on record as “approximately half”. Also, the t1/2 in series [3] (B4F, 25 °C, calculated as ln(2)/koff) is recorded as 18.3 ± 6.1 years. Also, the koff in series [3] (B4F, 25 °C, extrapolated from the Arrhenius plot) is reported as 1.2 ± 0.4 × 10^–9 s^-1.
Regarding “M112: streptavidin mutein G26C/A46C with a Cys-26/Cys-46 disulfide bond on the N-terminal side of loop 3–4”, the “increase in rate of dissociation for B4F, oxidized vs reduced M112” value in series [3] (25 °C) is ~ 60 fold. The “pseudo-first order rate constant of disulfide bond formation” value in series [4] (21 °C) stood at 0.14 ± 0.02 h⁻¹; in series [4] (37 °C), 0.41 ± 0.06 h⁻¹.
With “Wild-type: 66-kDa homotetrameric biotin-binding protein from Streptomyces avidinii; obtained from Bio Basic”, the melting temperature in series [5] (apo-streptavidin) was 75.5 °C; in series [5] (streptavidin–biotin complex) it was 112.2 °C. Also, the “state at boiling temperatures” value in series [5] (presence of SDS) is “remains tetrameric and bound to biotin”. The “time to denature completely” value in series [2] (75 °C, absence of biotin) is given as no more than 5 min. Also, the “time to complete denaturation” value in series [2] (95 °C, biotin absent) is reported as “less than 1 min”. In addition, the “denaturation of the tetramer” value in series [2] (95 °C, 60 min incubation) was “no appreciable denaturation”.
